Laboratory results as given in a compilation of properties of binary mixtures (doi:10.1016/j.molliq.2014.09.006).

Assay: xn = mol fraction of the nth substance listed
Conditions: 101 kPa

CCCC[n+]1ccn(C)c1.O=[N+]([O-])[O-] + CCO
viscosity [mPa·s]
Conditions	x2 = 0	x2 = 0.2	x2 = 0.4	x2 = 0.6
283.15 K	400	121	46.4	18.9
288.15 K	290	93	37.8	15.9
293.15 K	210	73	–	13.5
298.15 K	–	–	26.1	11.6
303.15 K	121	47.1	22	–
308.15 K	94	–	18.8	8.84
313.15 K	74	–	16.3	7.81
318.15 K	59.4	–	–	6.95
323.15 K	48.2	22.8	12.4	6.23
328.15 K	39.6	19.6	11	5.62
333.15 K	32.9	16.9	9.8	5.1
